Test results reported in US5977169A, “Substituted tetronic acids useful for treating HIV and other retroviruses” (priority 1997, dated 1999).

Biological target: T1, HIV-1 protease (Human immunodeficiency virus type 1 group M subtype B, UniProt P04585)
T1 construct: The protease (or proteinase) enzyme, consisting of only 99 amino acids
Test: In vitro HIV protease inhibitory assay (fluorescently labeled substrate, avidin-polystyrene particles)
Format: biochemical
Settings: for inhibition at 3.3 µM: HIV-1 dose 3.3 μM; for inhibition at 10 µM: HIV-1 dose 10.0 μM; for inhibition at 30 µM: HIV-1 dose 30.0 μM; for inhibition at 0.37 µM: HIV-1 dose 0.37 μM; for inhibition at 1.1 µM: HIV-1 dose 1.1 μM
Method: The HIV protease screening assay is based on a fluorescently labeled substrate which can be resolved from nonlabeled cleavage product using avidin-polystyrene particles, 0.7-0.9 μm. The substrate is biotinylated at the amino terminal arginine and fluorescently labeled with fluorescein isothiocynate (FITC) at the carboxyl terminal lysine. This assay has been employed to detect novel, nonpeptidic inhibitors of HIV-1 protease. Substrate (20 μl of 0.2 μM), sample (10 μl of desired concentraion), and enzyme (10 μl of 0.1 μM) are added to a 96 well pandex plate. The assay is run in 0.1 M sodium acetate buffer at pH 5.5 in the presence of 1.0 M sodium chloride and 0.05% NP-40 and incubated in the dark for one hour at room temperature. Avidin coated polystyrene beads (40 μl of 0.1% (w/v)) are added and the incubation is continued in the dark for an additional half hour. The labeled cleavage product is separated from the unreacted substrate via filtration and is read on the IDEXX Screen Machine. (IDEXX Corporation--Portland, Me.) The data are analyzed by appropriate computer algorithms to ascertain percent inhibition values.
The Activity Table showing the results of the HIV Protease Inhibitory Assay appears below in TABLE 1. The table has three columns, the left column provides the code number of the compound for easy cross reference to structure tables and detailed procedures, the middle column provides the concentration of test compound and the column on the right provides the percent inhibition.

Row | SMILES | inhibition at 3.3 µM | inhibition at 10 µM | inhibition at 30 µM | also measured
1 | CCCC1(Cc2cccnc2)OC(=O)C(C(c2ccccc2)C2CC2)=C1O (stereo not shown) [DX-6, 2(5H)-Furanone, 3-(cyclopropylphenylmethyl)-4-hydroxy-5-propyl-5-(3--pyridinylmethyl)-] | 103% | 102% | 104% | 
2 | CCC1(CCc2ccccc2)OC(=O)C(C(c2ccccc2)C2CC2)=C1O (stereo not shown) [DX-7, 2(5H)-Furanone, 3-(cyclopropylphenylmethyl)-5-ethyl-4-hydroxy-5-(2-phenyl-ethyl)-] | 108% | 112% | 103% | 
3 | CCCC1(CCc2ccccc2)OC(=O)C(C(c2ccccc2)C2CC2)=C1O (stereo not shown) [DX-8, 2(5H)-Furanone, 3-(cyclopropylphenylmethyl)-4-hydroxy-5-(2-phenyl-ethyl)-5-propyl-] | 114% | 109% | 103% | 
4 | O=C1OC(CCc2ccccc2)(CCc2ccccc2)C(O)=C1C(c1ccccc1)C1CC1 (stereo not shown) [DX-9, 2(5H)-Furanone, 3-(cyclopropylphenylmethyl)-4-hydroxy-5,5-bis(2-phenylethyl)-] | 86.7% | 104% | 99.8% | 
5 | CC1(CCCc2ccccc2)OC(=O)C(C(c2ccccc2)C2CC2)=C1O (stereo not shown) [DX-10, 2(5H)-Furanone, 3-(cyclopropylphenylmethyl)-4-hydroxy-5-methyl-5-(3-phenyl-propyl)-] | 112% | 104% | 91.5% | 
6 | CCC1(CCCc2ccccc2)OC(=O)C(C(c2ccccc2)C2CC2)=C1O (stereo not shown) [DX-11, 2(5H)-Furanone, 3-(cyclopropylphenylmethyl)-5-ethyl-4-hydroxy-5-(3-phenyl-propyl)-] | 101% | 111% | 105% | 
7 | CCCCC1(CCCc2ccccc2)OC(=O)C(C(c2ccccc2)C2CC2)=C1O (stereo not shown) [DX-12, 2(5H)-Furanone, 5-butyl-3-(cyclopropylphenylmethyl)-4-hydroxy-5-(3-phenyl-propyl)-] | 116% | 129% | 123% | 
8 | O=C1OC(CCCc2ccccc2)(CCCc2ccccc2)C(O)=C1C(c1ccccc1)C1CC1 (stereo not shown) [DX-13, 2(5H)-Furanone, 3-(cyclopropylphenylmethyl)-4-hydroxy-5,5-bis(3-phenyl-propyl)-] | 85% | 102% | 106% | 
9 | O=C1OC(CCCc2ccccc2)(CC2CC2)C(O)=C1C(c1ccccc1)C1CC1 (stereo not shown) [DX-14] |  |  |  | inhibition at 0.123 µM (HIV-1 dose 0.123 μM): 89.2%; inhibition at 0.37 µM: 104%
10 | O=C1OC(CCCc2ccccc2)(Cc2ccccc2)C(O)=C1C(c1ccccc1)C1CC1 (stereo not shown) [DX-15, 2(5H)-Furanone, 3-(cyclopropylphenylmethyl)-4-hydroxy-5-(phenylmethyl)-5-(3--phenylpropyl)-] | 108% | 116% | 114% | 
11 | C=CCC1(CCCc2ccccc2)OC(=O)C(C(c2ccccc2)C2CC2)=C1O (stereo not shown) [DX-16, 2(5H)-Furanone, 3-(cyclopropylphenylmethyl)-4-hydroxy-5-(3-phenyl-propyl)-5-(2-propenyl)-] | 114% | 115% | 118% | 
12 | CC(C)C1(CCCc2ccccc2)OC(=O)C(C(c2ccccc2)C2CC2)=C1O (stereo not shown) [DX-17, 2(5H)-Furanone, 3-(cyclopropylphenylmethyl)-4-hydroxy-5-(1-methylethyl)-5-(3--phenylpropyl)-] | 103% | 97.6% | 96% | 
13 | O=C1OC(CCCc2ccccc2)(CCc2ccccc2)C(O)=C1C(c1ccccc1)C1CC1 (stereo not shown) [DX-18, 2(5H)-Furanone, 3-(cyclopropylphenylmethyl)-4-hydroxy-5-(2-phenyl-ethyl)-5-(3-phenylpropyl)-] | 113% | 114% | 101% | 
14 | CCC(C)C1(CCCc2ccccc2)OC(=O)C(C(c2ccccc2)C2CC2)=C1O (stereo not shown) [DX-19, 2(5H)-Furanone, 3-(cyclopropylphenylmethyl)-4-hydroxy-5-(1-methylpropyl)--5-(3-phenylpropyl)-] | 100% |  |  | inhibition at 0.37 µM: 100%; inhibition at 1.1 µM: 103%
15 | CC(C)CC1(CCCc2ccccc2)OC(=O)C(C(c2ccccc2)C2CC2)=C1O (stereo not shown) [DX-20, 2(5H)-Furanone, 3-(cyclopropylphenylmethy)-4-hydroxy-5-(2-methylpropyl)-5--(3-phenylpropyl)-] |  |  |  | inhibition at 0.12 µM (HIV-1 dose 0.12 μM): 29.2%; inhibition at 0.37 µM: 71.5%; inhibition at 1.1 µM: 90.3%
16 | O=C1OC(CCCc2ccccc2)C(O)=C1C(Cc1ccccc1)c1ccccc1 (stereo not shown) [FX-1, 2(5H)-Furanone, 3-(1,2-diphenylethyl)-4-hydroxy-5-(3-phenylpropyl)-] | 15.5% | 35.4% | 50.6% | 

Row | SMILES | inhibition at 3.3 µM | inhibition at 10 µM | inhibition at 30 µM | also measured
17 | O=C1OC(CCCc2ccccc2)C(O)=C1C(c1ccccc1)c1ccccc1 (stereo not shown) [FX-2, 2(5H)-Furanone, 3-(diphenylmethyl)-4-hydroxy-5-(3-phenylpropyl)-] | 41.5% | 69% | 77.3% | 
18 | C=CC(C1=C(O)C(CCCc2ccccc2)OC1=O)c1ccccc1 (stereo not shown) [FX-3, 2(5H)-Furanone, 4-hydroxy-3-(1-phenyl-2-propenyl)-5-(3-phenylpropyl)-] | 38.6% | 66.3% | 68.6% | 
19 | CC(C)C(C1=C(O)C(CCCc2ccccc2)OC1=O)c1ccccc1 (stereo not shown) [FX-4, 2(5H)-Furanone, 4-hydroxy-3-(2-methyl-1-phenylpropyl)-5-(3-phenylpropyl)-] | 56.6% | 84.4% | 96.5% | 
20 | CC(C)(C)C(C1=C(O)C(CCCc2ccccc2)OC1=O)c1ccccc1 (stereo not shown) [FX-5, 2(5H)-Furanone, 3-(2,2-dimethyl-1-phenylpropyl)-4-hydroxy-5-(3-phenyl-propyl)-] | 61.9% | 84.4% | 84.3% | 
21 | CCCCC(CCc1ccccc1)C1OC(=O)C(C(c2ccccc2)C2CC2)=C1O (stereo not shown) [GX-2, 2(5H)-Furanone, 3-(cyclopropylphenylmethyl)-4-hydroxy-5-(1-(2-phenyl-ethyl)pentyl)-] | 70.9% | 88.3% | 74.9% | 
22 | CC(CCc1ccccc1)C1OC(=O)C(C(c2ccccc2)C2CC2)=C1O (stereo not shown) [GX-3, 2(5H)-Furanone, 3-(cyclopropylphenylmethyl)-4-hydroxy-5-(1-methyl-3-phenyl-propyl)-] | 67.2% | 84.7% | 87.4% | 
23 | O=C1OC(C(CCc2ccccc2)c2ccccc2)C(O)=C1C(c1ccccc1)C1CC1 (stereo not shown) [GX-4, 2(5H)-Furanone,3-(cyclopropylphenylmethyl)-5-(1,3-diphenylpropyl)-4-hydroxy-] | 93.6% | 108% | 103% | 
24 | CCCCC(CC)C1OC(=O)C(C(c2ccccc2)C2CC2)=C1O (stereo not shown) [GX-5, 2(5H)-Furanone, 3-(cyclopropylphenylmethyl)-5-(1-ethylpentyl)-4-hydroxy-] | 94% | 94.1% | 99.2% | 
25 | CCC(c1ccccc1)C1OC(=O)C(C(c2ccccc2)C2CC2)=C1O (stereo not shown) [GX-6, 2(5H)-Furanone, 3-(cyclopropylphenylmethyl)-4-hydroxy-5-(1-phenylpropyl)-] | 91.9% | 99.7% | 103% | 
26 | CCCC(c1ccccc1)C1OC(=O)C(C(c2ccccc2)C2CC2)=C1O (stereo not shown) [GX-7, 2(5H)-Furanone, 3-(cyclopropylphenylmethyl)-4-hydroxy-5-(1-phenylbutyl)-] | 92.7% | 103% | 102% | 
27 | CCC(CC)C1OC(=O)C(C(c2ccccc2)C2CC2)=C1O (stereo not shown) [GX-8, 2(5H)-Furanone, 3-(cyclopropylphenylmethyl)-5-(1-ethylpropyl)-4-hydroxy-] | 85.9% | 104% | 84.3% | 
28 | COC(=O)CC(CCc1ccccc1)C1OC(=O)C(C(c2ccccc2)C2CC2)=C1O (stereo not drawn) [HX-1, 2-Furanpropanoic acid, 4-(cyclopropylphenyl-methyl)-2,5-dihydro-3-hydroxy-5--oxo-β-(2-phenylethyl)-, methyl ester] | 62.1% | 90.9% |  | inhibition at 1.1 µM: 37.6%
29 | O=C1OC(C(CCO)CCc2ccccc2)C(O)=C1C(c1ccccc1)C1CC1 (stereo not shown) [HX-2, 2(5H)-Furanone, 3-(cyclopropylphenylmethyl)-4-hydroxy-5-(1-(2-hydroxyethyl)--3-phenylpropyl)-] |  |  |  | inhibition at 0.1 µM (HIV-1 dose 0.1 μM): < 10%; inhibition at 0.3 µM (HIV-1 dose 0.3 μM): 13.5%
30 | CCCC1(CCC)OC(=O)C(C(c2cccc([N+](=O)[O-])c2)C2CC2)=C1O (stereo not shown) [IX-1, 2(5H)-Furanone, 3-(cyclopropyl(3-nitrophenyl)methyl)-4-hydroxy-5,5-dipropyl-] | 108% | 121% | 122% | 
31 | CCCC1(CCC)OC(=O)C(C(CC)c2cccc([N+](=O)[O-])c2)=C1O (stereo not shown) [IX-2, 2(5H)-Furanone, 4-hydroxy-3-(1-(3-nitrophenyl)propyl)-5,5-dipropyl-] | 102% | 113% | 102% | 
